Measured values taken from paper PMC9101188, “Human α-Defensin-6 Neutralizes Clostridioides difficile Toxins TcdA and TcdB by Direct Binding” (International Journal of Molecular Sciences, 2022).
No end group written: not given here.

Tests used:
TcdB [1] = conditions: SPR, β-def-1 6 µM (control); pH 7.0, 25 °C, 25 µL/min, 4 min injection
Procedure: (A) 2400 RUs of biotinylated TcdB were immobilized via streptavidin-biotin binding onto a streptavidin sensor chip, and α-def-6 (concentrations as indicated) was applied to the chip for 4 min followed by a dissociation phase with a flow of running buffer. A solution of 6 µM of α-def-6 was injected twice to assess reproducibility, and β-def-1 (6 µM) served as a control. The flow rate was 25 µL/min.
TcdB was biotinylated via EZ-Link^TM Sulfo-NHS-Biotin (Thermo Fisher Scientific, Waltham, MA, USA) according to the manufacturer’s protocol. Briefly, TcdB was incubated with Sulfo-NHS-Biotin for 30 min at room temperature (RT). To remove the excess non-reacted biotin, TcdB was rebuffered with a Zeba^TM Spin Desalting Column (Thermo Fisher Scientific, Waltham, MA, USA). The successful biotinylation was verified via Western blotting and detection with peroxidase-conjugated streptavidin (1:2500, F. Hoffmann-La Roche AG, Basel, Switzerland).
The binding of α-def-6 to biotinylated TcdB was analyzed via surface plasmon resonance spectroscopy (SPR) with a Reichert SPR7500DC SPR spectrometer (Reichert Technologies, Buffalo, NY, USA). All analytes were dialyzed in running buffer (10 mM HEPES, 150 mM NaCl, 50 µM EDTA, 0.005% (v/v) Tween®20, pH 7.0) beforehand. Experiments were performed with a flow rate of 25 µL/min at 25 °C. […]

[2] = tested on: bacterial toxins including TcdB; conditions: cited from earlier work
zebrafish embryos = conditions: in vivo
TcdB autoprotease domain = experiment: In vitro autoprocessing of TcdB (InsP6-induced autoprotease activity); type: biochemical, C. difficile VPI 10463; conditions: NEM 1 mM; TcdB 2 µg, InsP6 1 mM; 1 h, 37 °C, pH 7.4 (n = 2)
Procedure: (§1) The flow rate was 25 µL/min. […] A representative gel is shown (n = 2). […] GAPDH served as the loading control. A representative Western blot is shown.
The effects of α-def-6 on TcdB autoprocessing by its intrinsic cysteine protease activity were analyzed. […] Inositol hexakisphosphate (1 mM, Santa Cruz Biotechnology, Dallas, TX, USA) was added to the samples to induce autoprocessing. N-Ethylmaleimide (1 mM, Sigma Aldrich by Merck KGaA, Darmstadt, Germany) served as positive control for the inhibition of TcdB-autoprocessing. The reactions were stopped by addition of a Laemmli buffer and heat denaturation (95 °C). For the analysis, the samples were electrophoresed on 8% SDS polyacrylamide gels, and proteins were visualized by Coomassie staining.

glucosyltransferase = conditions: control in UDP-Glo assay at 10 mM; ref [29]; cited from earlier work
Procedure: Based on the finding that TcdB directly binds to α-def-6 in vitro, a set of experiments was performed to investigate the consequences of this interaction for TcdB. Although α-def-6 and TcdB interact directly, the release of the glucosyltransferase domain by the autoprotease domain in the presence of inositol hexakisphosphate (InsP6) was not affected (Figure 1B).

TcdA, TcdB and CDT = conditions: ref [25],[26]; cited from earlier work
Excerpt: (§2) The benchmark for treating CDIs is still the use of some specific antibiotics such as vancomycin, metronidazole or fidaxomicin [20]. More and more attention is also being paid to the direct inactivation of the secreted toxins, for example by using anti-toxin-antibodies such as bezlotoxumab or actoxumab. Following the approach of directly inactivating the secreted toxins and based on previous findings of our group and of others, we investigated the effects of human endogenous antimicrobial peptides on the C. difficile toxins TcdA and TcdB. Here, of particular interest is the group ...

bacterial protein toxins = conditions: ref [51]; cited from earlier work
Excerpt: There is increasing evidence that α-def-6 represents an outlier among the α-defensins, which is also noticeable in the context of bacterial toxins. Anti-toxin activities have already been described for several α-defensins.

TcdB glucosyltransferase = experiment: UDP-Glo glucosyltransferase assay; type: biochemical, C. difficile VPI 10463; conditions: TcdB 200 pM, recombinant Rac1 5 µM, UDP-glucose 100 µM, 1 h, 37 °C, pH 7.5, luminescence (n ≥ 3)
Procedure: as §1
UDP-Glo™ Glucosyltransferase assay with UDP-Glucose (Promega Corporation, Madison, WI, USA) was performed according to the manufacturer’s protocol. Briefly, TcdB (200 pM) was incubated in glucosylation buffer (50 mM HEPES, 100 mM KCl, 2 mM MgCl2, 1 mM MnCl2, 100 mg/L BSA, pH 7.5) with various concentrations of the respective inhibitors in a final volume of 40 µL. 5 µM recombinant Rac1 was included in the samples as a substrate. […] Castanospermine (10 mM, Santa Cruz Biotechnology, Dallas, TX, USA) served as control for inhibition of glucosyltransferase activity of TcdB. To stop the reaction, three times 10 µL of each sample were transferred to a white half area 96 well microplate (Greiner Bio-One International GmbH, Kremsmünster, Austria) combined with 10 µL of UDP Detection Reagent and mixed at 1000 rpm for 30 s on a plate shaker (Titramax 1000, Heidolph Instruments GmbH & Co. KG, Schwabach, Germany). Luminescence was recorded after 15–60 min via a Tecan infinite M1000 Pro plate reader (Tecan, Männdorf, Switzerland) with an integration time of 750 ms.

bacteria = conditions: ref [46]; cited from earlier work
Excerpt: as §2, with “TcdB. […] The administration” for “TcdB. Here,”, “of α-def-6 protected human cells from TcdB, but also from” for “of particular interest is”, “the closely related TcdA and the clinically more relevant combination of both TcdA and TcdB. Exemplarily, the protective effect could be confirmed for TcdB in vivo using the zebrafish embryo” for “the group”

TcdB [3] = conditions: ref [24]; cited from earlier work

Molecule: β-def-1: β-defensin used as control to exclude non-specific interactions; purchased from Pepta Nova (DHYNCVSSGGQCLYSACPIFTKIQGTCYRGKAKCCK; ends and bridges not checked; cysteine pairing not given here) [reference compound]
- interaction with immobilized TcdB, compared to α-def-6 (TcdB [1]): much weaker in combination with a faster washout
- interaction with bacterial toxins including TcdB [2]: do not interact with bacterial toxins including TcdB

Molecule: Abamectin [reference compound]
- neurotoxicity (zebrafish embryos): causes neurotoxicity

Molecule: CCN1C(=O)C=CC1=O [NEM, N-ethylmaleimide, reference compound]
- autocatalytic processing of TcdB (effect of control inhibitor) (TcdB autoprotease domain): prevented the autocatalytic processing of TcdB

Molecule: O[C@H]1[C@H](O)[C@@H](O)CN2CC[C@H](O)[C@H]12 [castanospermine]
- inhibition of glucosyltransferase (glucosyltransferase): established glucosyltransferase inhibitor

Molecule: α-defensin-1: human neutrophil peptide 1, α-defensin cited from earlier work [reference compound]
- inactivation of TcdA, TcdB and CDT (TcdA, TcdB and CDT): inactivate TcdA and CDT, in addition to TcdB
- destabilization of toxin secondary and tertiary structures (local unfolding) (bacterial protein toxins): leads to the destabilization of secondary and tertiary structures

B1: α-def-5: structurally similar defensin; purchased from Pepta Nova (peptide, UniProt Q01523 20-94, looked up)
Defensin alpha 5: ESLQERADEATTQKQSGEDNQDLAISFAGNGLSALRTSGSQARATCYCRTGRCATRESLSGVCEISGRLYRLCCR
modifications: Defensin-5
notes: structurally similar defensin; purchased from Pepta Nova
- inhibition of glucosyltransferase activity of TcdB (TcdB glucosyltransferase): clear concentration-dependent reduction of glucosyltransferase activity
- inactivation of TcdA, TcdB and CDT (TcdA, TcdB and CDT): inactivate TcdA and CDT, in addition to TcdB
- biocidal / antimicrobial activity (bacteria): significant biocidal activity against invading pathogens
- inhibition of glucosyltransferase and glucosylhydrolase activity of TcdB (TcdB [3]): directly inhibits the glucosyltransferase and glucosylhydrolase activity of TcdB
